# Counter-ions that a name gives are not always drawn.
row,Compound,flash point
1,CC(=O)OCCC(C)C [iso-Amyl acetate],23.00 °C
2,CC(C)CCOC=O [iso-Amyl formate],26.00 °C
3,CC(C)Cc1ccccc1 [iso-Butyl benzene],52.00 °C
4,CCC(C)C [iso-Pentane],-51.00 °C
5,C=C(C)OC(C)=O [iso-Propenyl acetate],16.00 °C
6,CC(=O)OC(C)C [iso-Propyl acetate],4.00 °C
7,CC(C)OC(=O)c1ccccc1 [iso-Propyl benzoate],99.00 °C
8,Cc1cccc(O)c1 [m-Cresol],94.00 °C
9,CCCCOC(C)=O [n-Butyl acetate],27.00 °C
10,CCCCc1ccccc1 [n-Butyl benzene],71.00 °C
11,CCCCCl [n-Butyl chloride],7.00 °C
12,CCCC(=O)O [n-Butyric acid],66.00 °C
13,CCCC(=O)OC(=O)CCC [n-Butyric anhydride],88.00 °C
14,CCCC#N [n-Butyronitrile],26.00 °C
15,CCNc1ccccc1 [n-Ethyl aniline],85.00 °C
16,CCCCCCO [n-Hexanol],60.00 °C
17,CCCO [n-Propyl alcohol],15.00 °C
18,Cc1ccccc1O [o-Cresol],81.00 °C
19,Clc1ccccc1Cl [o-Dichlorobenzene],66.00 °C
20,O=[N+]([O-])c1ccccc1-c1ccccc1 [o-Nitrobiphenyl],143.00 °C
21,Oc1ccccc1-c1ccccc1 [o-Phenyl phenol],124.00 °C
22,Cc1ccccc1C [o-Xylene],32.00 °C
23,Oc1ccc(Cl)cc1 [p-Chlorophenol],121.00 °C
24,Cc1ccc(C(C)C)cc1 [p-Cymene],47.00 °C
25,"C=C(C)C1CC=C(C)CC1 (centres undefined) [p-Mentha-1,8-diene]",45.00 °C
26,Cc1ccc([N+](=O)[O-])cc1 [p-Nitrotoluene],106.00 °C
27,Nc1ccc(N)cc1 [p-Phenylenediamine],156.00 °C
28,CCC(C)OC(C)=O (centres undefined) [sec-Butyl acetate],31.00 °C
29,CC(C)(C)OOC(=O)c1ccccc1 [tert-Butyl perbenzoate],88.00 °C

# Remark: another data set of the same source
row,Compound,flash point
1,"NCCCN [1,3-Diaminopropane]",49.0 °C
2,CCCCOCC(C)O (centres undefined) [1-Butoxy-2-propanol],59.0 °C
3,C=CCCCCCCCCCCCCCC [1-HEXADECENE],132.0 °C
4,C=CCCCCCCCCCCCCCCCC [1-Octadecene],148.0 °C
5,CCCO [1-PROPANOL],18 °C
6,CCCCC(C)=O [2-Hexanone],23.0 °C
7,C=CCOC(C)=O [ALLYL ACETATE],22.2 °C
8,CCCC#N [Butanenitrile],18.0 °C
9,CCCCOC(C)=O [Butyl acetate],25.0 °C
10,CCCC(=O)O [Butyric acid],72.0 °C
11,NC1CCCCC1 [Cyclohexanamine],26.5 °C
12,c1ccc(Oc2ccccc2)cc1 [Diphenyl ether],115.0 °C
13,"CC(Cl)Cl [Ethane, 1,1-dichloro-]",-10.0 °C
14,C=CC(=O)OCC(C)C [Isobutyl acrylate],31.2 °C
15,COC(C)=O [METHYL ACETATE],-10.0 °C
16,Cc1cc(C)cc(C)c1 [Mesitylene],44.5 °C
17,"Cc1cccc(O)c1 [Phenol, 3-methyl-]",86.0 °C
18,CC(=O)C(C)(C)C [Pinacolone],9.0 °C
19,CCC#N [Propanenitrile],6.0 °C
20,CCCCCCCCCCC=O [Undecanal],96.0 °C
21,C=COCCCC [n-Butylvinylether],-1 °C
22,CCCCCC [n-HEXANE],-21.6 °C
23,c1ccc(-c2ccc(-c3ccccc3)cc2)cc1 [p-Terphenyl],207 °C

# Next, values leading:
row,flash point,Compound
1,68.0 °C,"Cc1ccc(C)c(C)c1C [1,2,3,4-TETRAMETHYLBENZENE]"
2,74.0 °C,"Cc1ccc(C)c(C)c1C [1,2,3,4-Tetramethylbenzene]"
3,44.0 °C,"Cc1cccc(C)c1C [1,2,3-TRIMETHYLBENZENE]"
4,51.0 °C,"Cc1cccc(C)c1C [1,2,3-Trimethylbenzene]"
5,55 °C,"Cc1cc(C)c(C)cc1C [1,2,4,5-TETRAMETHYLBENZENE]"
6,73.0 °C,"Cc1cc(C)c(C)cc1C [1,2,4,5-Tetramethylbenzene]"
7,0.6 °C,"COCC(C)OC (centres undefined) [1,2-DIMETHOXYPROPANE]"
8,-0.0 °C,"COCC(C)OC (centres undefined) [1,2-Dimethoxypropane]"
9,56 °C,"CCc1cccc(CC)c1 [1,3-Diethylbenzene]"
10,-55.9 °C,"C=CC(C)C [1-Butene, 3-methyl-]"
11,27 °C,CCCCCC=O [1-HEXANAL]
12,-6.0 °C,"C=C(C)CCCC [1-Hexene, 2-methyl-]"
13,-6.0 °C,"C=CC(C)CCC (centres undefined) [1-Hexene, 3-methyl-]"
14,22 °C,C=CCCCCCCC [1-NONENE]
15,26.0 °C,C=CCCCCCCC [1-Nonene]
16,84 °C,CCCCCCCCO [1-OCTANOL]
17,8 °C,C=CCCCCCC [1-OCTENE]
18,86.6 °C,CCCCCCCCO [1-Octanol]
19,11.5 °C,C=CCCCCCC [1-Octene]
20,58.0 °C,"CCC(C)CCO (centres undefined) [1-Pentanol, 3-methyl-]"
21,83.0 °C,CCCCCCc1ccccc1 [1-Phenylhexane]
22,143 °C,CCCCCCCCCCCCCCO [1-TETRADECANOL]
23,148.0 °C,CCCCCCCCCCCCCCO [1-Tetradecanol]
24,95.0 °C,"Cc1cccc(O)c1C [2,3-Dimethylphenol]"
25,-16.0 °C,"CC(C)=C(C)C [2-Butene, 2,3-dimethyl-]"
26,-34.9 °C,CC(C)Cl [2-Chloropropane]

row,flash point,Compound
1,57 °C,CCC(CC)CO [2-ETHYL-1-BUTANOL]
2,59.0 °C,CCCCCC(C)O (centres undefined) [2-Heptanol]
3,35.0 °C,"CC(=O)CCC(C)C [2-Hexanone, 5-methyl-]"
4,64.0 °C,CCCCCCCC(C)=O [2-NONANONE]
5,72.4 °C,CCCCCCCC(C)=O [2-Nonanone]
6,51.0 °C,CCCCCCC(C)=O [2-OCTANONE]
7,56.0 °C,CCCCCCC(C)=O [2-Octanone]
8,12.0 °C,"CCC(C)C(C)=O (centres undefined) [2-Pentanone, 3-methyl-]"
9,28 °C,"CCC(C)CC(C)(C)CC (centres undefined) [3,3,5-TRIMETHYLHEPTANE]"
10,31 °C,"CCC(C)CC(C)(C)CC (centres undefined) [3,3,5-Trimethylheptane]"
11,37.0 °C,CCCCC(=O)CC [3-Heptanone]
12,-1.0 °C,CC(=O)C(C)C [3-Methyl-2-butanone]
13,66.0 °C,CCCCCCC(=O)CC [3-Nonanone]
14,13.0 °C,"CCC(=O)C(C)C [3-Pentanone, 2-methyl-]"
15,7.0 °C,CCC(=O)CC [3-Pentanone]
16,48.0 °C,CCCC(=O)CCC [4-HEPTANONE]
17,34.0 °C,CCCC(=O)CCC [4-Heptanone]
18,65.0 °C,CCCCC(=O)CCCC [5-Nonanone]
19,83.0 °C,CCCCCCCCOC(C)=O [Acetic acid octyl ester]
20,97.5 °C,"CCCCCCCc1ccccc1 [Benzene, heptyl-]"
21,66.0 °C,"CCCCCc1ccccc1 [Benzene, pentyl-]"
22,50.0 °C,"CCCCOC(=O)CCC [Butanoic acid, butyl ester]"
23,-11.0 °C,CCCC=O [Butyraldehyde]
24,11.2 °C,"C[C@H]1CC[C@@H](C)CC1 [Cyclohexane, 1,4-dimethyl-, cis-]"
25,18.0 °C,"CCC1CCCCC1 [Cyclohexane, ethyl-]"
26,49.8 °C,CCCCCCCCCC [Decane]

row,flash point,Compound
1,104.0 °C,CCCCCCCCCCO [Decyl alcohol]
2,13.0 °C,"CCOC(C)OCC [Ethane, 1,1-diethoxy-]"
3,19.0 °C,"CCCCCC(C)(C)C [Heptane, 2,2-dimethyl-]"
4,6.0 °C,"CCCCC(C)CC (centres undefined) [Heptane, 3-methyl-]"
5,6.0 °C,"CCCC(C)CCC [Heptane, 4-methyl-]"
6,134.0 °C,CCCCCCCCCCCCCCCC [Hexadecane]
7,3.0 °C,"CCC(C)CC(C)C (centres undefined) [Hexane, 2,4-dimethyl-]"
8,2.0 °C,"CC(C)CCC(C)C [Hexane, 2,5-dimethyl-]"
9,7.5 °C,"CCC(C)C(C)CC (centres undefined) [Hexane, 3,4-dimethyl-]"
10,164 °C,CCCCCCCCCCCC(=O)O [Lauric acid]
11,99.0 °C,CCCCCCCCCOC(C)=O [NONYL ACETATE]
12,168 °C,CCCCCCCCCCCCCCCCCCC [Nonadecane]
13,41 °C,"CCCCCCCC(C)C [Nonane, 2-methyl-]"
14,37.8 °C,"CC(C)CCCCC(C)C [Octane, 2,7-dimethyl-]"
15,26.0 °C,"CCCCCCC(C)C [Octane, 2-methyl-]"
16,25.5 °C,"CCCCCC(C)CC (centres undefined) [Octane, 3-methyl-]"
17,215 °C,O=C(O)CCCCCC(=O)O [PIMELIC acid]
18,11.0 °C,"CCCCCCl [Pentane, 1-chloro-]"
19,21.5 °C,"CCC(C)(C)C(C)(C)C [Pentane, 2,2,3,3-tetramethyl-]"
20,21 °C,"CCC(CC)(CC)CC [Pentane, 3,3-diethyl-]"
21,150.0 °C,O=C(O)CCCCCC(=O)O [Pimelic acid]
22,-29.9 °C,CCC=O [Propionaldehyde]
23,33 °C,"Cc1cccc(C)n1 [Pyridine, 2,6-dimethyl-]"
24,36.0 °C,"Cc1cccnc1 [Pyridine, 3-methyl-]"
25,23.0 °C,CCC(C)O (centres undefined) [sec-Butanol]

# From a flash point compilation (Sun et al. 2020)
